The target in this assay is YKL-40 (YKL-40-histag, chitin binding site) (Homo sapiens (Human), UniProt P36222). As to the kind of experiment: YKL-40:4 assay, competitive chitin binding site AlphaScreen.
[1] abbreviates: competition with biotinylated compound 4, 20 nM, YKL-40-histag 2.5 nM, read-out: YKL-40:4, IC50/Kd (IC50 range).

Structures can show the parent of a compound that is named as a salt. Where two headings read alike, the source gives them in different places. Where only a bound is given, the exact number is not on record here.

YKL-40 (YKL-40-histag, chitin binding site), sequence (P36222 22-383): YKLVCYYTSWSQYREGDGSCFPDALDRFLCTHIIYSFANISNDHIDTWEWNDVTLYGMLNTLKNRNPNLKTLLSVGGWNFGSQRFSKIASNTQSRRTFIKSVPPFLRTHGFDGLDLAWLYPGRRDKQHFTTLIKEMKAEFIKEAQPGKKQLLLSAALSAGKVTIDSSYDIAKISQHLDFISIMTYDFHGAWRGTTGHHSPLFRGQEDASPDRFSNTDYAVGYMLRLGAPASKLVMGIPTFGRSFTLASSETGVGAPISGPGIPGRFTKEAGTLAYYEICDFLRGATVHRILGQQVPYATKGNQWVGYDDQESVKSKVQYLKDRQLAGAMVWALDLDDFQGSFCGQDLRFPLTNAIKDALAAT

`Clc1ccc(C[C@H]2COc3ccccc3CN2C2CCN(c3ccccn3)CC2)cc1` [Compound 81, (S)-3-(4-chlorobenzyl)-4-(1-(pyridin-2-yl)piperidin-4-yl)-2,3,4,5-tetrahydrobenzof[1,4]oxazepine hydrochloride] registered an IC50 above 10 µM.
`C[C@H]1CN(C2CCN(c3ncccc3C(N)=O)CC2)[C@@H](Cc2ccc(Cl)cc2)CO1` [Compound 114, 2-(4-((2S,5S)-5-(4-chlorobenzyl)-2-methylmorpholino)piperidin-1-yl)nicotinamide 2,2,2-trifluoroacetate] yielded an IC50 above 10 µM.
Still for that read-out and setting: then `Cc1nsc(N2CCC(N3C[C@H](C)OC[C@@H]3Cc3ccc(Cl)cc3)CC2)n1` [Compound 180, (2S,5S)-5-(4-chlorobenzyl)-2-methyl-4-(1-(3-methyl-1,2,4-thiadiazol-5-yl)piperidin-4-yl)morpholine 2,2,2-trifluoroacetate], with above 10 µM; and `O=C1NCCN(C2CCN(c3ccccn3)CC2)[C@H]1Cc1ccc(Cl)cc1` [Compound 149, (S)-3-(4-chlorobenzyl)-4-(1-(pyridin-2-yl)piperidin-4-yl)piperazin-2-one 2,2,2-trifluoroacetate], with above 10 µM; and `C[C@H]1CN(C2CCN(c3ncc(F)cc3F)CC2)[C@@H](Cc2ccc(Cl)cc2)CO1` [Example 25, (2S,5S)-5-(4-chlorobenzyl)-4-(1-(3,5-difluoropyridin-2-yl)piperidin-4-yl)-2-methylmorpholine 2,2,2-trifluoroacetate], with above 10 µM.
Still for that read-out and setting: then `C[C@H]1CN(C2CCN(c3ncccc3CO)CC2)[C@@H](Cc2ccc(Cl)cc2)CO1` [Compound 120, (2-(4-((2S,5S)-5-(4-chlorobenzyl)-2-methylmorpholino)piperidin-1-yl)pyridin-3-yl)methanol 2,2,2-trifluoroacetate], with above 10 µM.
The compound `C[C@H]1CN(C2CCN(c3nccc4ccccc34)CC2)[C@@H](Cc2ccc(Cl)cc2)CO1` [Compound 116, (2S,5S)-5-(4-chlorobenzyl)-4-(1-(isoquinolin-1-yl)piperidin-4-yl)-2-methylmorpholine 2,2,2-trifluoroacetate] gave an IC50 above 10 µM.
With `C[C@H]1CN(C2CCN(c3cc(C(N)=O)ccn3)CC2)[C@@H](Cc2ccc(Cl)cc2)CO1` [Compound 132, 2-(4-((2S,5S)-5-(4-chlorobenzyl)-2-methylmorpholino)piperidin-1-yl)isonicotinamide 2,2,2-trifluoroacetate], the IC50 is above 10 µM.
Same read-out and setting: then `C[C@H]1CN(C2CCN(c3cc(=O)[nH]cn3)CC2)[C@@H](Cc2ccc(Cl)cc2)CO1` [Compound 167, 6-(4-((2S,5S)-5-(4-chlorobenzyl)-2-methylmorpholino)piperidin-1-yl)pyrimidin-4(3H)-one 2,2,2-trifluoroacetate], with above 10 µM; and `C[C@H]1CN(C2CCN(c3cccc(F)c3)CC2)[C@@H](Cc2ccc(Cl)cc2)CO1` [Compound 127, (2S,5S)-5-(4-chlorobenzyl)-4-(1-(3-fluorophenyl)piperidin-4-yl)-2-methylmorpholine 2,2,2-trifluoroacetate], with above 10 µM.
For `Cc1ccc(N2CCC(N3C[C@H](C)OC[C@@H]3Cc3ccc(Cl)cc3)CC2)nc1` [Compound 136, (2S,5S)-5-(4-chlorobenzyl)-2-methyl-4-(1-(5-methylpyridin-2-yl)piperidin-4-yl)morpholine hydrochloride], the IC50 under setting [1] is above 10 µM.
As for `C[C@H]1CN(C2CCN(c3ccccc3F)CC2)[C@@H](Cc2ccc(Cl)cc2)CO1` [Compound 126, (2S,5S)-5-(4-chlorobenzyl)-4-(1-(2-fluorophenyl)piperidin-4-yl)-2-methylmorpholine 2,2,2-trifluoroacetate], the IC50 was above 10 µM.
For the compound `C[C@H]1CN(C2CCN(c3cncc(C(F)(F)F)n3)CC2)[C@@H](Cc2ccc(Cl)cc2)CO1` [Compound 153, (2S,5S)-5-(4-chlorobenzyl)-2-methyl-4-(1-(6-(trifluoromethyl)pyrazin-2-yl)piperidin-4-yl)morpholine hydrochloride], the IC50 under setting [1] was above 10 µM.
Compound `COc1cccnc1N1CCC(N2C[C@H](C)OC[C@@H]2Cc2ccc(Cl)cc2)CC1` [Compound 162, (2S,5S)-5-(4-chlorobenzyl)-4-(1-(3-methoxypyridin-2-yl)piperidin-4-yl)-2-methylmorpholine 2,2,2-trifluoroacetate] had an IC50 above 10 µM.
As to `CC(C)C[C@H]1CN(C2CCN(c3ccccn3)CC2)[C@@H](Cc2ccc(Cl)cc2)CN1C(=O)OC(C)(C)C` [Compound 2e, tert-butyl (2S,5S)-5-(4-chlorobenzyl)-2-isobutyl-4-(1-(pyridin-2-yl)piperidin-4-yl)piperazine-1-carboxylate], the IC50 under setting [1] was above 10 µM.
`C[C@H]1CN(C2CCN(c3ccnc(N)n3)CC2)[C@@H](Cc2ccc(Cl)cc2)CO1` [Compound 67, 4-(4-((2S,5S)-5-(4-chlorobenzyl)-2-methylmorpholino)piperidin-1-yl)pyrimidin-2-amine 2,2,2-trifluoroacetate]: the IC50 was above 10 µM.
For `C[C@H]1CN(C2CCN(c3ncnc(O)n3)CC2)[C@@H](Cc2ccc(Cl)cc2)CO1` [Compound 170], the IC50 is above 10 µM.
Turning to `C[C@H]1CN(C2CCN(c3cnc(C(F)(F)F)cn3)CC2)[C@@H](Cc2ccc(Cl)cc2)CO1` [Compound 158, (2S,5S)-5-(4-chlorobenzyl)-2-methyl-4-(1-(5-(trifluoromethyl)pyrazin-2-yl)piperidin-4-yl)morpholine hydrochloride], the IC50 under setting [1] is above 10 µM.
Compound `Cc1cccnc1N1CCC(N2C[C@H](C)OC[C@@H]2Cc2ccc(Cl)cc2)CC1` [Example 16, (2S,5S)-5-(4-chlorobenzyl)-2-methyl-4-(1-(3-methylpyridin-2-yl)piperidin-4-yl)morpholine 2,2,2-trifluoroacetate] came in with an IC50 above 10 µM.
On the same count and under the same terms, with `C[C@H]1CN(C2CCN(c3ncnc(N)n3)CC2)[C@@H](Cc2ccc(Cl)cc2)CO1` [Compound 174, 4-(4-((2S,5S)-5-(4-chlorobenzyl)-2-methylmorpholino)piperidin-1-yl)-1,3,5-triazin-2-amine 2,2,2-trifluoroacetate] the figure was above 10 µM.
Take `COC(=O)c1ccnc(F)c1N1CCC(N2C[C@H](C)OC[C@@H]2Cc2ccc(Cl)cc2)CC1` [Compound 121, methyl 3-(4-((2S,5S)-5-(4-chlorobenzyl)-2-methylmorpholino)piperidin-1-yl)-2-fluoroisonicotinate]: the IC50 under setting [1] is above 10 µM.
Turning to `Cc1noc(N2CCC(N3C[C@H](C)OC[C@@H]3Cc3ccc(Cl)cc3)CC2)n1` [Compound 188, (2S,5S)-5-(4-chlorobenzyl)-2-methyl-4-(1-(3-methyl-1,2,4-oxadiazol-5-yl)piperidin-4-yl)morpholine 2,2,2-trifluoroacetate], the IC50 is above 10 µM.
In turn, `C[C@H]1CN(C2CCN(c3ccccc3C#N)CC2)[C@@H](Cc2ccc(Cl)cc2)CO1` [Compound 119, 2-(4-((2S,5S)-5-(4-chlorobenzyl)-2-methylmorpholino)piperidin-1-yl)benzonitrile 2,2,2-trifluoroacetate] returned an IC50 above 10 µM.
Same read-out and setting: then `C[C@H]1CN(C2CCN(c3ccncn3)CC2)[C@@H](Cc2ccc(Cl)cc2)CO1` [Example 26, (2S,5S)-5-(4-chlorobenzyl)-2-methyl-4-(1-(pyrimidin-4-yl)piperidin-4-yl)morpholi-ne 2,2,2-trifluoroacetate], with above 10 µM; and `C[C@H]1CN(C2CCN(C(=O)OC(C)(C)C)CC2)[C@@H](Cc2ccc(Cl)cc2)CO1` [Compound 8d, tert-butyl 4-((2S,5S)-5-(4-chlorobenzyl)-2-methylmorpholino)piperidine-1-carboxylate], with above 10 µM.
In turn, `C[C@H]1CN(C2CCN(c3cc(C(C)(C)O)ccn3)CC2)[C@@H](Cc2ccc(Cl)cc2)CO1` [Compound 131, 2-(2-(4-((2S,5S)-5-(4-chlorobenzyl)-2-methylmorpholino)piperidin-1-yl)pyridin-4-yl)propan-2-ol 2,2,2-trifluoroacetate] showed an IC50 above 10 µM.
On the same count and under the same terms, then `C[C@H]1CN(C2CCN(c3noc(C(F)(F)F)n3)CC2)[C@@H](Cc2ccc(Cl)cc2)CO1` [Compound 164, (2S,5S)-5-(4-chlorobenzyl)-2-methyl-4-(1-(5-(trifluoromethyl)-1,2,4-oxadiazol-3-yl)piperidin-4-yl)morpholine 2,2,2-trifluoroacetate], with above 10 µM; and `C[C@H]1CN(C2CCN(c3ncns3)CC2)[C@@H](Cc2ccc(Cl)cc2)CO1` [Compound 179, (2S,5S)-4-(1-(1,2,4-thiadiazol-5-yl)piperidin-4-yl)-5-(4-chlorobenzyl)-2-methylmorpholine 2,2,2-trifluoroacetate], with above 10 µM.
The compound `Cc1ncnc(N2CCC(N3C[C@H](C)OC[C@@H]3Cc3ccc(Cl)cc3)CC2)n1` [Compound 172, (2S,5S)-5-(4-chlorobenzyl)-2-methyl-4-(1-(4-methyl-1,3,5-triazin-2-yl)piperidin-4-yl)morpholine 2,2,2-trifluoroacetate] registered an IC50 above 10 µM.
`C[C@H]1CN(C2CCN(c3ncccc3O)CC2)[C@@H](Cc2ccc(Cl)cc2)CO1` [Compound 160, 2-(4-((2S,5S)-5-(4-chlorobenzyl)-2-methylmorpholino)piperidin-1-yl)pyridin-3-ol 2,2,2-trifluoroacetate] showed an IC50 above 10 µM.
Turning to `Cc1cccc(N2CCC(N3C[C@H](C)OC[C@@H]3Cc3ccc(Cl)cc3)CC2)n1` [Compound 135, (2S,5S)-5-(4-chlorobenzyl)-2-methyl-4-(1-(6-methylpyridin-2-yl)piperidin-4-yl)morpholine hydrochloride], the IC50 under setting [1] is above 10 µM.
The same measure, in the same setting: with `C[C@H]1CN(C2CCN(c3ccnc(Cl)n3)CC2)[C@@H](Cc2ccc(Cl)cc2)CO1` [Compound 66, (2S,5S)-5-(4-chlorobenzyl)-4-(1-(2-chloropyrimidin-4-yl)piperidin-4-yl)-2-methylmorpholine] the figure was above 10 µM.
Compound `CC(C)C[C@H]1CN(C2CCN(c3ccccn3)CC2)[C@@H](Cc2ccc(Cl)cc2)CN1CC(=O)OC(C)(C)C` [Compound 2g, tert-butyl 2-((2S,5S)-5-(4-chlorobenzyl)-2-isobutyl-4-(1-(pyridin-2-yl)piperidin-4-yl)piperazin-1-yl)acetate] had an IC50 above 10 µM.
